These results are taken from patent US20230014445A1, “ALLOSTERIC CHROMENONE INHIBITORS OF PHOSPHOINOSITIDE 3-KINASE (PI3K) FOR THE TREATMENT OF DISEASE” (Petra Pharma Corporation, priority 2021, published 2023).

Assay [1] deals with T1, human full length PIK3KA H1047R mutant (p110α/p85α complex) (Homo sapiens, UniProt P42336, H1047R).
T1 construct: Recombinant, catalytically active human full length PIK3KA Wild-type and H1047R mutant were purchased; 6xHis (N); purchased EMD Millipore Sigma 14-792M
T1 sequence (P42336 whole entry H1047R): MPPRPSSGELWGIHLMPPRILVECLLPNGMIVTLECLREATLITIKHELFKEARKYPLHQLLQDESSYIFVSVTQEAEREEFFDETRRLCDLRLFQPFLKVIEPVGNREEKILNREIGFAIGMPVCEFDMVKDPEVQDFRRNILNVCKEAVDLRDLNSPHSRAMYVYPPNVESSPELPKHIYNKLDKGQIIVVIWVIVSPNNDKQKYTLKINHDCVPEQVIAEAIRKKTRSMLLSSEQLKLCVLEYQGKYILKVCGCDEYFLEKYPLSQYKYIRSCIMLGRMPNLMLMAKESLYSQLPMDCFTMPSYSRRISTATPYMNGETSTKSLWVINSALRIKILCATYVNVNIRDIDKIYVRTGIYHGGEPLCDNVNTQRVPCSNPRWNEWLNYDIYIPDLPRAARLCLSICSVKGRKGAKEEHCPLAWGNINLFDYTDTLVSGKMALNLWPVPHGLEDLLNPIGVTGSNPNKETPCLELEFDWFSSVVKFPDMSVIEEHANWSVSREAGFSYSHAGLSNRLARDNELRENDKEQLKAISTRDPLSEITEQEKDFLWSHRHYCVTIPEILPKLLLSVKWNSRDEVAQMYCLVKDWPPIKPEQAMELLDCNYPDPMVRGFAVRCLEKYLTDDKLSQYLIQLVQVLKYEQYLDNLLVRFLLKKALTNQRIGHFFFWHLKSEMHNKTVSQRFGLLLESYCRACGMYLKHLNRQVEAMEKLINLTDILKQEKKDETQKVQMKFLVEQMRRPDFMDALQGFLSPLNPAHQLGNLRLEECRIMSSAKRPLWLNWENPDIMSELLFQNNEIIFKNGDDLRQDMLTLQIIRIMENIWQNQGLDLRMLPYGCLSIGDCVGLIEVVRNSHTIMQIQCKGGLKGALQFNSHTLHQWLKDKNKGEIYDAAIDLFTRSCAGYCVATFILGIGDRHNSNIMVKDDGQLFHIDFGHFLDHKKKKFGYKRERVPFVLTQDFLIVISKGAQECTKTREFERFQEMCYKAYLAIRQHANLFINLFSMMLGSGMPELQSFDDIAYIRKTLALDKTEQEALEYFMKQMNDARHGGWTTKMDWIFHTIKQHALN
T1 sequence (P27986 whole entry partner): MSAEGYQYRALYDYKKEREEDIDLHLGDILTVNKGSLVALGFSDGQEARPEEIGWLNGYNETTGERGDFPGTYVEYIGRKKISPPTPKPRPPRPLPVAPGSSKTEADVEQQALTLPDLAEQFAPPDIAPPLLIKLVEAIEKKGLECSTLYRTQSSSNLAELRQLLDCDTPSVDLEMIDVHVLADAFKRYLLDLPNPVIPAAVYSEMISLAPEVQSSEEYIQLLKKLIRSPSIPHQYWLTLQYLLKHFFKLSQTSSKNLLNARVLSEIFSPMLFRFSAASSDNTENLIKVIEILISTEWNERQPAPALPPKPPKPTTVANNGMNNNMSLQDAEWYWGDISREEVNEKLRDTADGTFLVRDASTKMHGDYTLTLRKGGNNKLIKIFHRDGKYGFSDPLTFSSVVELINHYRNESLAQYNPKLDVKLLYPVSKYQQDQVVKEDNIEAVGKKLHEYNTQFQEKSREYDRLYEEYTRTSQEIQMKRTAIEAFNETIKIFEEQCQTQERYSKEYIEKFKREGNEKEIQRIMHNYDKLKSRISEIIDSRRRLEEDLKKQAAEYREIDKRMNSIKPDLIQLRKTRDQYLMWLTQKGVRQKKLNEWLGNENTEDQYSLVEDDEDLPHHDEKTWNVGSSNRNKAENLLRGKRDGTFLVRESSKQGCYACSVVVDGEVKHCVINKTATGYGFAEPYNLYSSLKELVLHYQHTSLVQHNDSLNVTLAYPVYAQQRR
Nature of the assay: PI3K-Alpha Kinase (PIK3CA) biochemical activity, H1047R mutant (ADP-Glo). Conditions: Soy PI lipid substrate, 20 uM ATP. Put shortly: (§1)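 ADP formation, measured by ADP-Glo luminescence after reaction to about 10% ATP conversion at 27° C., gives 10-point 4-parameter IC50 curves normalized to no-enzyme and DMSO controls. Lipid substrate was PIP2diC8 or Soy PI at 50 uM, with 20 uM ATP. WT or H1047R p110α/p85α complex (1-5 nM) was preincubated 1 h with compound.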

Assay [2] addresses PI3K-α (PIK3CA) in MDA-MB-453 cells (Homo sapiens, UniProt P42336). Nature of the assay: PI3K-Alpha Kinase (PIK3CA) activity in vitro cell based assay (AlphaLisa SureFire). Put shortly:
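Serum-free MDA-MB-453 cells with 1 μg/mL insulin treated 3 h with a 10-point compound series in 0.3% DMSO; lysates analysed by AlphaLisa SureFire. Relative IC50 from 4-parameter fit of % inhibition versus DMSO (max) and 1 μM GDC-0032 (min) controls, duplicates.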

In assay [3] the target is T2, human full length PIK3KA Wild-type (p110α/p85α complex) (Homo sapiens, UniProt P42336).
T2 construct: Recombinant, catalytically active human full length PIK3KA Wild-type and H1047R mutant were purchased; 6xHis (N); purchased EMD Millipore Sigma 14-602M
Nature of the assay: PI3K-Alpha Kinase (PIK3CA) biochemical activity, wild-type (ADP-Glo). Conditions: Soy PI lipid substrate, 20 uM ATP. Put shortly: as §1

Where [4] appears, read: read-out: PI3K-α (PIK3CA) in vitro cell based assay IC50, 0% FBS, 3 hours treatment.
The mark [5] stands for this setting: 0% FBS, 3 hours treatment, read-out: PI3K-α (PIK3CA) in vitro cell based assay IC50.

Structures are written as SMILES. Read-outs that look alike come from different tables or passages of the source.

Chain of PI3K-α (PIK3CA) in MDA-MB-453 cells (P42336 whole entry): as the sequence (P42336 whole entry H1047R) above, with R1047H counted along it
Chain of PI3K-α (PIK3CA) in MDA-MB-453 cells (P27986 2-724, further chain): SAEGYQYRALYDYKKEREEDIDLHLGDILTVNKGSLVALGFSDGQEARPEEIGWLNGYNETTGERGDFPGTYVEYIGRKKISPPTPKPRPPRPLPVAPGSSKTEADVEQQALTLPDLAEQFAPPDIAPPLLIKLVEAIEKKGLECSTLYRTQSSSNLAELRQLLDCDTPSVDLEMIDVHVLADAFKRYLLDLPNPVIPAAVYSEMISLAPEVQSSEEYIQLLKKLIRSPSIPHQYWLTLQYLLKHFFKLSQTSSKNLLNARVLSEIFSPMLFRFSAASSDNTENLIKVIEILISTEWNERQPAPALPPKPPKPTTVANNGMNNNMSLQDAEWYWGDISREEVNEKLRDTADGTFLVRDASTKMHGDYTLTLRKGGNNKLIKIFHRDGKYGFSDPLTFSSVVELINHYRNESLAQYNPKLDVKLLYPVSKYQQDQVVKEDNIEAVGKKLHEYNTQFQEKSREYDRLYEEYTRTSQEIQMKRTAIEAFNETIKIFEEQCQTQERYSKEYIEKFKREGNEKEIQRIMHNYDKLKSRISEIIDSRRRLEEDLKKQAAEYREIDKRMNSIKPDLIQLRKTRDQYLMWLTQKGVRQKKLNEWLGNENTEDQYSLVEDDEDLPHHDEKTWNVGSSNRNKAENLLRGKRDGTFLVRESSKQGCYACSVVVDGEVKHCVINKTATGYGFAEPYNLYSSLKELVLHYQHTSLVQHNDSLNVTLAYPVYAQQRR

With `Cc1cc(C(C)Nc2ccccc2C(=O)O)c2oc(-c3cn(-c4ccc(C#N)cc4)nn3)cc(=O)c2c1` (single isomer, unassigned) [Example 124, 2-[1-[2-[1-(4-Cyanophenyl)triazol-4-yl]-6-methyl-4-oxo-chromen-8-yl]ethylamino]benzoic acid, Isomer 2,2,2,2-trifluoroacetic acid], the IC50 in assay [1] was below 500 nM; in assay [2] (setting [4]), 50 to 100 nM; in assay [3] it was 1000 to 5000 nM.
As to `Cc1cc(C(C)Nc2ccccc2C(=O)O)c2oc(-c3cncc(F)c3)c(C)c(=O)c2c1` (single isomer, unassigned; isomer 1) [Example 45, 2-[1-[2-(5-Fluoro-3-pyridyl)-3,6-dimethyl-4-oxo-chromen-8-yl]ethylamino]benzoic acid, Isomer 1], the IC50 in assay [1] was below 500 nM; in assay [2] (setting [5]) it was below 50 nM; in assay [3], 500 to 1000 nM.
As to `Cc1cc(C(C)Nc2ccc(C(F)(F)F)cc2C(=O)O)c2oc(-c3cccnc3)c(C)c(=O)c2c1` (single isomer, unassigned; isomer 1) [Example 119, 2-[1-[3,6-Dimethyl-4-oxo-2-(3-pyridyl)chromen-8-yl]ethylamino]-5-(trifluoromethyl)benzoic acid, Isomer 1], the results for the IC50 in assay [1], in assay [2] (setting [5]) and in assay [3] were below 500 nM, 50 to 100 nM and 1000 to 5000 nM, respectively.
With `Cc1cc(C(C)Nc2ccccc2C(=O)O)c2oc(-c3cnn(-c4ccc(C#N)nc4)c3)cc(=O)c2c1` (single isomer, unassigned) [Example 82, 2-[1-[2-[1-(6-Cyano-3-pyridyl)pyrazol-4-yl]-6-methyl-4-oxo-chromen-8-yl]ethylamino]benzoic acid, Isomer 2,2,2,2-trifluoroacetic acid], the IC50 is below 500 nM in assay [1], 50 to 100 nM in assay [2] (setting [4]) and 1000 to 5000 nM in assay [3].
Consider `Cc1cc(C(C)Nc2ccc(C)nc2C(=O)O)c2oc(-c3cccnc3)c(C)c(=O)c2c1` (single isomer, unassigned; isomer 1) [Example 118, 3-[1-[3,6-Dimethyl-4-oxo-2-(3-pyridyl)chromen-8-yl]ethylamino]-6-methyl-pyridine-2-carboxylic acid, Isomer 1], for which the half-maximal inhibitory concentration (IC50) in assay [1] is below 500 nM; in assay [2] (setting [5]) it was 50 to 100 nM; in assay [3], 1000 to 5000 nM.
For `Cc1cc(C(C)Nc2ccc(C)nc2C(=O)O)c2oc(-c3ccccn3)c(C)c(=O)c2c1` (single isomer, unassigned; isomer 1) [Example 122, 3-[1-[3,6-Dimethyl-4-oxo-2-(2-pyridyl)chromen-8-yl]ethylamino]-6-methyl-pyridine-2-carboxylic acid, Isomer 1], the IC50 in assay [1] was below 500 nM; in assay [2] (setting [5]), 50 to 100 nM; in assay [3] it was 5000 to 10000 nM.
`Cc1cc(C(C)Nc2ccccc2C(=O)O)c2oc(-c3cnn(-c4ccccc4)c3)cc(=O)c2c1` (single isomer, unassigned) [Example 80, 2-[1-[6-Methyl-4-oxo-2-(1-phenylpyrazol-4-yl)chromen-8-yl]ethylamino]benzoic acid, Isomer 2,2,2,2-trifluoroacetic acid]: the IC50 in assay [1] was below 500 nM; in assay [2] (setting [4]) it was below 50 nM; in assay [3], 5000 to 10000 nM.
Take `Cc1cc(C(C)Nc2ccccc2C(=O)O)c2oc(-c3ccc(F)nc3)cc(=O)c2c1` (single isomer, unassigned; isomer 1) [Example 35, 2-[1-[2-(6-Fluoro-3-pyridyl)-6-methyl-4-oxo-chromen-8-yl]ethylamino]benzoic acid, Isomer 1]: the IC50 in assay [1] is above 10000 nM; in assay [2] (setting [5]), above 500 nM; in assay [3], above 10000 nM.
Regarding `Cc1cc(C(C)Nc2ccccc2C(=O)O)c2oc(-c3cc(C)n[nH]3)cc(=O)c2c1` (single isomer, unassigned) [Example 75, 2-[1-[6-Methyl-2-(3-methyl-1H-pyrazol-5-yl)-4-oxo-chromen-8-yl]ethylamino]benzoic acid, Isomer 2,2,2,2-trifluoroacetic acid], the IC50 in assay [1] was below 500 nM; in assay [2] (setting [4]) it was 50 to 100 nM; in assay [3], 5000 to 10000 nM.
Regarding `Cc1c(-c2ccccn2)oc2c(C(C)Nc3ccc(Cl)nc3C(=O)O)cc(C(F)(F)F)cc2c1=O` (single isomer, unassigned; isomer 1) [Example 61, 6-Chloro-3-[1-[3-methyl-4-oxo-2-(2-pyridyl)-6-(trifluoromethyl)chromen-8-yl]ethylamino]pyridine-2-carboxylic acid, Isomer 1], the figures for the IC50 in assay [1], in assay [2] (setting [5]) and in assay [3] were below 500 nM, below 50 nM and 500 to 1000 nM, respectively.
Take `Cc1c(-c2cncc(F)c2)oc2c(C(C)Nc3ccc(Cl)nc3C(=O)O)cc(C(F)(F)F)cc2c1=O` (single isomer, unassigned; isomer 1) [Example 97, 6-Chloro-3-[1-[2-(5-fluoro-3-pyridyl)-3-methyl-4-oxo-6-(trifluoromethyl)chromen-8-yl]ethylamino]pyridine-2-carboxylic acid, Isomer 1]: the IC50 is below 500 nM in assay [1], below 50 nM in assay [2] (setting [5]) and 1000 to 5000 nM in assay [3].
`Cc1cc(C(C)Nc2ccccc2C(=O)O)c2oc(-c3cnc(OC(C)C)nc3)cc(=O)c2c1` (single isomer, unassigned; isomer 1) [Example 41, 2-[1-[2-(2-Isopropoxypyrimidin-5-yl)-6-methyl-4-oxo-chromen-8-yl]ethylamino]benzoic acid, Isomer 1]: the IC50 is above 10000 nM in assay [1], above 500 nM in assay [2] (setting [5]) and above 10000 nM in assay [3].
On to `Cc1cc(C(C)Nc2ccccc2C(=O)O)c2oc(-c3cnn(-c4cccc(C#N)c4)c3)c(C)c(=O)c2c1` (single isomer, unassigned) [Example 74, 2-[1-[2-[1-(3-Cyanophenyl)pyrazol-4-yl]-3,6-dimethyl-4-oxo-chromen-8-yl]ethylamino]benzoic acid, Isomer 1,2,2,2-trifluoroacetic acid], for which the IC50 in assay [1] is below 500 nM; in assay [2] (setting [4]), below 50 nM; in assay [3], 500 to 1000 nM.
In the same order, the values of `Cc1cc(C(C)Nc2ccccc2C(=O)O)c2oc(-c3cnn(-c4ccc(C#N)cc4)c3)c(C)c(=O)c2c1` (single isomer, unassigned) [Example 73, 2-[1-[2-[1-(4-Cyanophenyl)pyrazol-4-yl]-3,6-dimethyl-4-oxo-chromen-8-yl]ethylamino]benzoic acid, Isomer 1,2,2,2-trifluoroacetic acid] are below 500 nM, 50 to 100 nM and 500 to 1000 nM.
Regarding `Cc1cc(C(C)Nc2ccc(C(F)(F)F)nc2C(=O)O)c2oc(-c3cccnc3)c(C)c(=O)c2c1` (single isomer, unassigned; isomer 1) [Example 117, 3-[1-[3,6-Dimethyl-4-oxo-2-(3-pyridyl)chromen-8-yl]ethylamino]-6-(trifluoromethyl)pyridine-2-carboxylic acid, Isomer 1], the IC50 in assay [1] is below 500 nM; in assay [2] (setting [5]) it was below 50 nM; in assay [3] it was 1000 to 5000 nM.
Turning to `Cc1cc(C(C)Nc2ccc(Cl)nc2C(=O)O)c2oc(-c3ccccn3)c(C)c(=O)c2c1` (single isomer, unassigned) [Example 121, 6-Chloro-3-[1-[3,6-dimethyl-4-oxo-2-(2-pyridyl)chromen-8-yl]ethylamino]pyridine-2-carboxylic acid, Isomer 1,2,2,2-trifluoroacetic acid], the IC50 was below 500 nM in assay [1], below 50 nM in assay [2] (setting [4]) and 1000 to 5000 nM in assay [3].
In the case of `COc1ccccc1-n1cc(-c2oc3c(C(C)Nc4ccccc4C(=O)O)cc(C)cc3c(=O)c2C)cn1` (single isomer, unassigned) [Example 70, 2-[1-2-[1-(2-Methoxyphenyl)pyrazol-4-yl]-3,6-dimethyl-4-oxo-chromen-8-yl]ethylamino]benzoic acid, Isomer 1,2,2,2-trifluoroacetic acid], the figures for the IC50 in assay [1], in assay [2] (setting [4]) and in assay [3] were 1000 to 5000 nM, below 50 nM and 1000 to 5000 nM, respectively.
On to `Cc1cc(C(C)Nc2ccccc2C(=O)O)c2oc(-c3cnn(C(F)F)c3)cc(=O)c2c1` (single isomer, unassigned) [Example 52, 2-[1-[2-[1-(Difluoromethyl)pyrazol-4-yl]-6-methyl-4-oxo-chromen-8-yl]ethylamino]benzoic acid, Isomer 2,2,2,2-trifluoroacetic acid], for which the IC50 in assay [1] was below 500 nM; in assay [2] (setting [4]), 50 to 100 nM; in assay [3], 1000 to 5000 nM.
`Cc1cc(C(C)Nc2ccccc2C(=O)O)c2oc(-c3ccccn3)c(C)c(=O)c2c1` (single isomer, unassigned; isomer 1) [Example 24, 2-[1-[3,6-Dimethyl-4-oxo-2-(2-pyridyl)chromen-8-yl]ethylamino]benzoic acid, Isomer 1]: the IC50 in assay [1] is below 500 nM; in assay [2] (setting [5]), below 50 nM; in assay [3] it was 1000 to 5000 nM.
In the case of `Cc1cc(C(C)Nc2cccnc2C(=O)O)c2oc(-c3cncc(F)c3)c(C)c(=O)c2c1` (single isomer, unassigned; isomer 1) [Example 131, 3-[1-[2-(5-Fluoro-3-pyridyl)-3,6-dimethyl-4-oxo-chromen-8-yl]ethylamino]pyridine-2-carboxylic acid, Isomer 1], the figures for the IC50 in assay [1], in assay [2] (setting [5]) and in assay [3] were 1000 to 5000 nM, 50 to 100 nM and above 10000 nM, respectively.
